≈ marks a conversion by molar mass, not a printed value.
Columns and labels:
[1] = Acute toxicity in mice; details: mouse, in vivo, male mice
Description: The compounds of the present invention have only a low acute toxicity. For example, the acute toxicities of typical compounds, i.e., α,α-bis(2-hydroxy-6-isopropyl-tropon-3-yl)toluene (IIIa) and α,α-bis(2-hydroxy-6-isopropyl-tropon-3-yl)-4-methoxytoluene (IIIb) have LD50 as shown in the following table: […]

[2] = tested on: P388 cancer cells; assay: Tests of life-prolongation effects on cancered mice (P388, i.p.); assay type: in vivo; details: Mus musculus, P388, ip, i.p. on first and fifth day, P388 in CDF mice, read-out: Life-prolongation effects T/C %
Protocol: 10^6 P388 cancer cells were grafted into groups of CDF mice. Each group consisted of six mice. On the first day and the fifth day, a sample to be tested was administered to the mice intraperitoneally. The life-prolongation effects were shown in terms of the ratio of the number of surviving days of the mice in the treated group to that in the control group (T/C %).

[3] = tested on: KB-cells; assay: KB-cell growth inhibition tests; assay type: cell-based; details: Homo sapiens, 48 h, MEM-10% calf serum, 5% CO2, 37° C., sample added second day, surviving cells counted fourth day, substantially 50% growth inhibition vs sample-free control, read-out: KB cell growth inhibition ED50
Protocol: KB-cells were placed in an Eagles minimal essential medium (MEM)-10% calf serum medium and cultered in a 5 % carbon dioxide atmosphere at 37° C. in an incubator. The cells thus treated were used in the tests. On the first day, the KB cells were diluted to a concentration of 2×10^4 /ml 3 ml of the resulting suspension was placed in watch glasses having a diameter of 60 mm. On the second day, 100, 30, 10, 3 and 1 μg/ml of each sample to be tested was added thereto and the culture was continued under the same conditions as above. On the fourth day, the surviving cells were taken out of the watch glass by meand of trypsin and the number of the cells was counted. The concentration of the sample required for obtaining substantially 50 % growth inhibition based on the sample-free control (ED50) was determined. The cancer cell growth inhibition effect of the sample was shown by ED50.

CC(C)c1ccc(C(c2ccccc2)c2ccc(C(C)C)cc(=O)c2O)c(O)c(=O)c1 [IIIa, α,α-bis(2-hydroxy-6-isopropyl-tropon-3-yl)toluene]
LD50 ([1]; ip): 5.5 mg/kg | LD50 ([1]; iv): 5.8 mg/kg | LD50 ([1]; po): > 5000 mg/kg | response vs control in vivo at 1.25 mg/kg ([2]; 1.25 mg/kg): 132% | response vs control in vivo at 5 mg/kg [2]: 188% | IC50 [3]: < 0.3 µg/mL

CC(C)c1ccc(C(c2ccc(N(C)C)cc2)c2ccc(C(C)C)cc(=O)c2O)c(O)c(=O)c1 [IIIe, α,α-bis(2-hydroxy-6-isopropyl-tropon-3-yl)-4-(N,N-dimethylamino)toluene]
response vs control in vivo at 2.5 mg/kg [2]: 141% | IC50 [3]: 0.69 µg/mL (≈ 1.5 µM)

Cc1ccc(C(c2ccc(C(C)C)cc(=O)c2O)c2ccc(C(C)C)cc(=O)c2O)cc1 [IIIc, α,α-bis(2-hydroxy-6-isopropyl-tropon-3-yl)-4-methyltoluene]
response vs control in vivo at 2.5 mg/kg [2]: 125% | response vs control in vivo at 10 mg/kg [2]: 163% | IC50 [3]: 1.45 µg/mL (≈ 3.37 µM)

COc1ccc(C(c2ccc(C(C)C)cc(=O)c2O)c2ccc(C(C)C)cc(=O)c2O)cc1 [IIIb, α,α-bis(2-hydroxy-6-isopropyl-tropon-3-yl)-4-methoxytoluene]
LD50 ([1]; ip): 11.2 mg/kg | LD50 ([1]; iv): 9.1 mg/kg | LD50 ([1]; po): > 5000 mg/kg | response vs control in vivo at 0.62 mg/kg ([2]; 0.62 mg/kg): 127% | response vs control in vivo at 5 mg/kg [2]: 173% | IC50 [3]: < 0.3 µg/mL

CC(C)c1ccc(C2OCCc3ccccc32)c(O)c(=O)c1 (stereo not drawn) [IIa, 3-(1-isochromanyl)-6-isopropyltropolone]
response vs control in vivo at 100 mg/kg [2]: 126% | IC50 [3]: < 0.3 µg/mL

O=c1ccccc(C2OCCc3ccccc32)c1O (stereo not drawn) [IIb, 3-(1-isochromanyl)tropolone]
response vs control in vivo at 100 mg/kg [2]: 96%

CCOC(c1ccc(OC)cc1)c1ccc(C(C)C)cc(=O)c1O (stereo not drawn) [Ic, 3-(α-ethoxy-4-methoxybenzyl)-6-isopropyltropolone]
response vs control in vivo at 100 mg/kg [2]: 140% | IC50 [3]: 0.51 µg/mL (≈ 1.55 µM)

CC(C)c1ccc(C(c2ccccc2)c2ccccc2)c(O)c(=O)c1 [Ie, 3-benzhydryl-6-isopropyltropolone]
response vs control in vivo at 200 mg/kg [2]: 123% | response vs control in vivo at 400 mg/kg [2]: 132% | IC50 [3]: 1.39 µg/mL (≈ 4.21 µM)

CC(C)c1ccc(Cc2ccccc2)c(O)c(=O)c1 [If, 3-benzyl-6-isopropyltropolone]
response vs control in vivo at 200 mg/kg [2]: 97% | IC50 [3]: 0.56 µg/mL (≈ 2.2 µM)

CCOC(c1ccc(C)cc1)c1ccc(C(C)C)cc(=O)c1O (stereo not drawn) [Ib, 3-(α-ethoxy-4-methylbenzyl)-6-isopropyltropolone]
response vs control in vivo at 400 mg/kg [2]: 125% | IC50 [3]: 6.2 µg/mL (≈ 19.8 µM)

COc1ccc(C(c2cc(C(C)C)ccc(=O)c2O)c2cc(C(C)C)ccc(=O)c2O)cc1 [IVa, α,α-bis(2-hydroxy-5-isopropyltropon-3-yl)-4-methoxytoluene]
response vs control in vivo at 2.5 mg/kg [2]: 137% | response vs control in vivo at 10 mg/kg [2]: 147% | IC50 [3]: 0.3 µg/mL (≈ 0.672 µM)

CCOC(c1ccc(N(C)C)cc1)c1ccc(C(C)C)cc(=O)c1O (stereo not drawn) [Id, 3-[α-ethoxy-4-(N,N-dimethylamino)benzyl]-6-isopropyltropolone]
response vs control in vivo at 100 mg/kg [2]: 136% | IC50 [3]: 0.59 µg/mL (≈ 1.73 µM)

CC(C)c1ccc(C(c2ccc(Cl)cc2)c2ccc(C(C)C)cc(=O)c2O)c(O)c(=O)c1 [IIId, α,α-bis(2-hydroxy-6-isopropyl-tropon-3yl)-4-chlorotoluene]
response vs control in vivo at 2.5 mg/kg [2]: 124% | response vs control in vivo at 10 mg/kg [2]: 144% | IC50 [3]: 2 µg/mL (≈ 4.43 µM)

CCOC(c1ccccc1)c1ccc(C(C)C)cc(=O)c1O (stereo not drawn) [Ia]
response vs control in vivo at 200 mg/kg [2]: 109% | IC50 [3]: < 0.3 µg/mL
